Test results published in PubChem BioAssay AID248 (DTP/NCI, 2004).
“And” between values parts separate entries of the source, which are not always exact repeats. Identical values can stand only once. Toxic doses and inconclusive results are not listed. Cut-off read from the data, not from the text of the source: active = T/C of 150% or more; inactive = T/C below 125%.

System: L1210 leukemia ip in BDF1 mice, survival T/C
Test: NCI In Vivo Anticancer Drug Screen. Data for tumor model L1210 Leukemia (intraperitoneal) in B6D2F1 (BDF1) mice
Conditions: endpoint: mean survival time, higher = longer survival
Summary of the method: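 Transplanted-tumor mice were given test agent; controls received vehicle only. Survival readings from the two groups were divided (treated over control).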

[1] = dose: 50.0 mg/kg/injection, schedule: Q04DX002 (ip), vehicle: Klucel (hydroxypropylcellulose) (HPC)
[2] = dose: 200.0 mg/kg/injection, schedule: Q04DX002 (ip), vehicle: Klucel (hydroxypropylcellulose) (HPC)
[3] = dose: 100.0 mg/kg/injection, schedule: Q04DX002 (ip), vehicle: saline with Tween-80
[4] = dose: 200.0 mg/kg/injection, schedule: Q04DX002 (ip), vehicle: saline with Tween-80
[5] = dose: 400.0 mg/kg/injection, schedule: Q04DX002 (ip), vehicle: saline with Tween-80
[6] = dose: 100.0 mg/kg/injection, schedule: Q01DX001 (ip), vehicle: saline with Tween-80
[7] = dose: 100.0 mg/kg/injection, schedule: Q01DX009 (ip), vehicle: saline with Tween-80
[8] = dose: 200.0 mg/kg/injection, schedule: Q01DX001 (ip), vehicle: saline with Tween-80
[9] = dose: 200.0 mg/kg/injection, schedule: Q01DX009 (ip), vehicle: saline with Tween-80
[10] = dose: 200.0 mg/kg/injection, schedule: Q04DX003 (ip), vehicle: saline with Tween-80
[11] = dose: 400.0 mg/kg/injection, schedule: Q01DX001 (ip), vehicle: saline with Tween-80
[12] = dose: 400.0 mg/kg/injection, schedule: Q04DX003 (ip), vehicle: saline with Tween-80
[13] = dose: 100.0 mg/kg/injection, schedule: Q04DX002 (ip), vehicle: Klucel (hydroxypropylcellulose) (HPC)
[14] = dose: 100.0 mg/kg/injection, schedule: Q01DX001 (ip), vehicle: carboxymethylcellulose (CMC)
[15] = dose: 200.0 mg/kg/injection, schedule: Q01DX001 (ip), vehicle: carboxymethylcellulose (CMC)
[16] = dose: 100.0 mg/kg/injection, schedule: Q04DX002 (ip), vehicle: saline
[17] = dose: 200.0 mg/kg/injection, schedule: Q04DX002 (ip), vehicle: saline
[18] = dose: 400.0 mg/kg/injection, schedule: Q04DX002 (ip), vehicle: saline
[19] = dose: 100.0 mg/kg/injection, schedule: Q04DX003 (ip), vehicle: saline
[20] = dose: 200.0 mg/kg/injection, schedule: Q04DX003 (ip), vehicle: saline
[21] = dose: 100.0 mg/kg/injection, schedule: Q04DX003 (ip), vehicle: saline with Tween-80

Measured: T/C

O=C1C=CC(=O)c2nc(-c3ccccn3)c(-c3ccccn3)nc21
inactive: dose: 1.56 mg/kg/injection, schedule: Q04DX003 (ip), vehicle: Klucel (hydroxypropylcellulose) (HPC) 92 % of control | dose: 3.12 mg/kg/injection, schedule: Q04DX003 (ip), vehicle: Klucel (hydroxypropylcellulose) (HPC) 93 % of control | dose: 6.25 mg/kg/injection, schedule: Q04DX003 (ip), vehicle: Klucel (hydroxypropylcellulose) (HPC) 90 % of control | dose: 18.0 mg/kg/injection, schedule: Q01DX009 (ip), vehicle: Klucel (hydroxypropylcellulose) (HPC) 101 % of control | dose: 28.0 mg/kg/injection, schedule: Q01DX009 (ip), vehicle: Klucel (hydroxypropylcellulose) (HPC) 100 % of control | dose: 40.0 mg/kg/injection, schedule: Q01DX009 (ip), vehicle: Klucel (hydroxypropylcellulose) (HPC) 93 % of control

Cc1ccc(NC(=O)Nc2ccccc2C(N)=O)cc1
inactive: dose: 100.0 mg/kg/injection, schedule: Q04DX003 (ip), vehicle: saline sonified 92 % of control | dose: 200.0 mg/kg/injection, schedule: Q04DX003 (ip), vehicle: saline sonified 92 % of control | dose: 400.0 mg/kg/injection, schedule: Q04DX003 (ip), vehicle: saline sonified 89 % of control

c1ccc2c(c1)ccc1cc3cc4cc5c(ccc6ccccc65)cc4cc3cc12
inactive: [1] 93 % of control | [2] 90 % of control

Clc1ccc(N2CCN(c3ccc(Cl)cc3)CC2)cc1
inactive: dose: 100.0 mg/kg/injection, schedule: Q04DX003 (ip), vehicle: Klucel (hydroxypropylcellulose) (HPC) 88 % of control | dose: 200.0 mg/kg/injection, schedule: Q04DX003 (ip), vehicle: Klucel (hydroxypropylcellulose) (HPC) 101 % of control | dose: 400.0 mg/kg/injection, schedule: Q04DX003 (ip), vehicle: Klucel (hydroxypropylcellulose) (HPC) 87 % of control

CCC1(O)CC(OC2CC(NC)C(OC3CC(O)C(OC4CC(O)C(O)C(C)O4)C(C)O3)C(C)O2)c2c(cc3c(c2O)C(=O)c2c(O)ccc(O)c2C3=O)C1C(=O)OC (stereo not given)
inactive: dose: 1.6 mg/kg/injection, schedule: Q01DX001 (ip), vehicle: saline 101 % of control | dose: 3.2 mg/kg/injection, schedule: Q01DX001 (ip), vehicle: saline 108 % of control | dose: 6.4 mg/kg/injection, schedule: Q01DX001 (ip), vehicle: saline 124 % of control | dose: 12.8 mg/kg/injection, schedule: Q01DX001 (ip), vehicle: saline 117 % of control | dose: 25.6 mg/kg/injection, schedule: Q01DX001 (ip), vehicle: saline 114 % of control

COc1ccc(OC)c(/C=N\NC(=O)N/N=C/c2cc(OC)ccc2OC)c1
inactive: [3] 101 % of control | [4] 101 % of control | [5] 95 % of control

N[P+](c1ccccc1)(c1ccccc1)c1ccccc1
inactive: dose: 12.5 mg/kg/injection, schedule: Q04DX002 (ip), vehicle: Klucel (hydroxypropylcellulose) (HPC) 109 % of control | dose: 25.0 mg/kg/injection, schedule: Q04DX002 (ip), vehicle: Klucel (hydroxypropylcellulose) (HPC) 88 % of control

Nc1nc(NCCCc2ccccc2)c(N=Nc2ccccc2)c(=O)[nH]1
inactive: [6] 106 % of control | [7] 98 % of control and 100 % of control | [3] 94 % of control | [8] 107 % of control | [9] 93 % of control and 98 % of control | [4] 93 % of control and 89 % of control | [10] 86 % of control | [11] 104 % of control | [5] 94 % of control and 89 % of control | [12] 86 % of control

CN(Cc1ccccc1)C(=O)Nc1ccccc1
inactive: [13] 98 % of control | [2] 103 % of control | dose: 400.0 mg/kg/injection, schedule: Q04DX002 (ip), vehicle: Klucel (hydroxypropylcellulose) (HPC) 95 % of control

COCc1nc2c(=S)nc[nH]c2n1N
inactive: [14] 105 % of control | [15] 98 % of control

CCCCC(=O)N(CCC)CCC
inactive: [16] 96 % of control | [17] 104 % of control | [18] 104 % of control

[Cl][Pt+2][Cl].[NH-]CCN1CC1
inactive: dose: 50.0 mg/kg/injection, schedule: Q04DX003 (ip), vehicle: saline 122 % of control | [19] 122 % of control

COc1cccc(C=Nc2ccc(I)cc2)c1O.COc1cccc(C=Nc2ccc(I)cc2)c1O.[Co]
inactive: [19] 94 % of control | [20] 94 % of control | dose: 400.0 mg/kg/injection, schedule: Q04DX003 (ip), vehicle: saline 109 % of control

COc1ccc(Cl)cc1NC(=O)N/N=C(\C)CC(C)C
inactive: [7] 91 % of control | [21] 97 % of control | [9] 91 % of control | [10] 101 % of control | [12] 101 % of control

CCCC[N+](C)(CCCC)CCCC
inactive: dose: 75.0 mg/kg/injection, schedule: Q01DX001 (ip), vehicle: saline 101 % of control

Cc1c(Cl)cccc1NC(=S)NC(=O)/C=C/c1ccccc1
inactive: dose: 50.0 mg/kg/injection, schedule: Q04DX003 (ip), vehicle: saline with Tween-80 96 % of control | [6] 90 % of control | [7] 98 % of control and 92 % of control | [3] 96 % of control and 87 % of control | [21] 93 % of control and 102 % of control | [9] 95 % of control and 98 % of control | [4] 107 % of control and 116 % of control | [10] 101 % of control | [11] 93 % of control | dose: 400.0 mg/kg/injection, schedule: Q01DX009 (ip), vehicle: saline with Tween-80 95 % of control and 90 % of control | [5] 111 % of control and 112 % of control | [12] 102 % of control and 88 % of control

CN=C1N[N+]2=C(C)CCCC2S1 (stereo not given)
inactive: [19] 95 % of control | [20] 95 % of control

Cc1cc(OCc2nc(N)nc(N)c2-c2ccc(Cl)c(Cl)c2)ccc1NC(=O)c1cc(S(=O)(=O)F)ccc1Cl
inactive: [6] 98 % of control | [8] 93 % of control | [11] 97 % of control

CC1=C[S+](c2ccccc2)c2cccc3cc4ccccc4c1c23 (stereo not given)
inactive: dose: 2.5 mg/kg/injection, schedule: Q01DX009 (ip), vehicle: saline with Tween-80 119 % of control

CC1(C)OC2OC(C(O)CO)C(O)C2O1 (stereo not given)
inactive: [16] 86 % of control | [17] 107 % of control | [18] 90 % of control

CCCCOC(=O)c1ccc(C)s1
inactive: [14] 95 % of control | [15] 101 % of control | dose: 400.0 mg/kg/injection, schedule: Q01DX001 (ip), vehicle: carboxymethylcellulose (CMC) 95 % of control

CN=C(c1ccc(NC(=O)c2cc(N)cc(C(=O)Nc3ccc(C(=NC)N(C)C)cc3)c2)cc1)N(C)C
inactive: dose: 0.9 mg/kg/injection, schedule: Q01DX Z (ip), vehicle: carboxymethylcellulose (CMC) 94 % of control | dose: 1.87 mg/kg/injection, schedule: Q01DX Z (ip), vehicle: carboxymethylcellulose (CMC) 97 % of control | dose: 3.75 mg/kg/injection, schedule: Q01DX Z (ip), vehicle: carboxymethylcellulose (CMC) 91 % of control | dose: 7.5 mg/kg/injection, schedule: Q01DX Z (ip), vehicle: carboxymethylcellulose (CMC) 100 % of control | dose: 15.0 mg/kg/injection, schedule: Q01DX Z (ip), vehicle: carboxymethylcellulose (CMC) 100 % of control | dose: 30.0 mg/kg/injection, schedule: Q01DX Z (ip), vehicle: carboxymethylcellulose (CMC) 91 % of control

Nc1cccc(NC(=O)Nc2ccccc2)c1
inactive: [1] 105 % of control | [13] 91 % of control
